# In US11701361B2, “p110-delta inhibitors treat and prevent autoimmunity while sparing the ability to mount an immune response to exogenous immunogens” (THE REGENTS OF THE UNIVERSITY OF COLORADO, priority 2018, dated 2023):
# Test system: NOD mice
# Assay: antibody response of NOD mice to NP4Ova+Alum immunization on idelalisib chow
# Type: in vivo, mouse
# Experimental: Diet dose (DD) is calculated by multiplying the single daily dose (SD) by the body weight of a mouse (BW) and dividing that by the daily food intake (FI) [DD=(SD×BW)/FI].
# For VH125.NOD experiments animals are placed on control chow immediately after weaning.
# HEL conjugated to SRBCs was used to produce antigen for experiments with MD4 B cells. SRBCs (Colorado Serum Company) were stored in Alsever's solution at 4° C. SRBCs are washed 3 times in PBS prior to use. 1 ml of 50 mg/ml of the chemical crosslinker N-(3-Dimethylaminopropyl)-N-ethylcarbodiimide hydrochloride (Sigma-Aldrich) was added to 1 ml packed SRBCs and 15 ml of 5 mg/ml HEL (Sigma-Aldrich), mixed and rotated at room temperature for 45 minutes. Mice were immunized IP with 200 μl of a 5% HEL-SRBC in PBS. For NP4Ova-Alum immunizations, 10 mg/ml alum and 5 mg/ml NP4Ova were mixed to a final concentration of 250 μg/ml NP4Ova and 2.5 mg/ml alum and rotated for 3 hours at room temperature. […] Mice were then immunized with NP4Ova-alum IP in 200 μl/mouse, and responses were measured on day 7 and day 14 post-immunization.
# For detection of IgM^a anti-Ars antibodies, microtiter plates were coated with 10 μg/ml Ars-BSA16 in PBS and blocked with 2 mg/ml BSA in PBS 0.05% Tween-20. For detection of IgM^a anti-HEL antibodies, microtiter plates were coated with 10 μg/ml HEL in PBS and blocked with 2 mg/ml BSA in PBS 0.05% Tween-20. For detection of total NP-specific IgM and IgG, microtiter plates were coated with 20 μg/ml NP27BSA and blocked with 2 mg/ml BSA in PBS 0.05% Tween-20. For detection of high affinity NP-specific IgM and IgG, microtiter plates were coated with 20 μg/ml NP2BSA and blocked with 2 mg/ml BSA in PBS 0.05% Tween-20. Serial dilutions of mouse serum in PBS were added and incubated overnight at 4° C. Ars/A1-derived IgM^a antibodies and MD4-derived HEL IgM^a antibodies were detected with biotinylated DS.1 anti-IgM^a (BD Pharmingen) in PBS, followed by Streptavidin-HRP (Thermo Fisher Scientific). For NP-specific IgM antibodies were detected using goat-anti-mouse IgM-HRP (SouthernBiotech). For NP-specific IgG antibodies were detected using goat-anti-mouse IgG-HRP (SouthernBiotech). Between all steps, plates were washed 3 times with PBS 0.05% Tween-20. The ELISA was developed with TMB single solution (Invitrogen) and the reaction was stopped with 1M HCl. OD was measured at 450 nm using a VERSAMax plate reader (Molecular Devices) and data analyzed with SoftMax Pro6 software.
# For detection of IgM^a anti-Ars antibodies, microtiter plates were coated with 10 μg/ml Ars-BSA16 in PBS and blocked with 2 mg/ml BSA in PBS 0.05% Tween-20. For detection of IgM^a anti-HEL antibodies, microtiter plates were coated with 10 μg/ml HEL in PBS and blocked with 2 mg/ml BSA in PBS 0.05% Tween-20. For detection of total NP-specific IgM and IgG, microtiter plates were coated with 20 μg/ml NP27BSA and blocked with 2 mg/ml BSA in PBS 0.05% Tween-20. For detection of high affinity NP-specific IgM and IgG, microtiter plates were coated with 20 μg/ml NP2BSA and blocked with 2 mg/ml BSA in PBS 0.05% Tween-20. Plates were washed 3 times prior to use with PBS 0.05% Tween-20. RBC-depleted single-cell suspension of splenocytes in complete medium were added in two-fold serial dilutions starting at 1/100th of a spleen in the first well. Plates were incubated overnight at 37° C. Ars/A1-derived IgM^a antibodies and MD4-derived HEL IgM^a antibodies were detected with biotinylated DS.1 anti-IgM^a (BD Pharmingen) in PBS, followed by Streptavidin-AP (SouthernBiotech). For NP-specific IgM antibodies were detected using goat-anti-mouse IgM-AP (SouthernBiotech). For NP-specific IgG antibodies were detected using goat-anti-mouse IgG-AP (SouthernBiotech). Between all steps, plates were washed 3 times with PBS 0.05% Tween-20. The plates were developed by incubated with ELISPOT developing buffer ([…] 5-bromochloro-3-indolyl phosphate p-toluidine, […], 100 mM Tris, and 10 mM MgCl2, pH 9.5) for 1 hour. […]
# [1] = 0.9375 mg/kg chow, 14 days post-immunization, vs vehicle control
# [2] = 0.9375 mg/kg chow, day 14 post-immunization, vs vehicle control
smiles,measurement,setting,value
"CC[C@H](Nc1ncnc2nc[nH]c12)c1nc2cccc(F)c2c(=O)n1-c1ccccc1 [idelalisib, 5-fluoro-3-phenyl-2-[(1S)-1-(7H-purin-6-ylamino)propyl]-4(3H)-quinazolinone]",anti-NP IgM response in the spleen,"0.9375 mg/kg chow for 4 weeks, 14 days post-immunization, vs vehicle control",not different
same,B cell numbers in the spleens,0.9375 mg/kg chow vs vehicle control,no difference
same,high affinity IgG anti-NP ASCs/spleen,[1],no observed difference
same,number of high-affinity IgM anti-NP ASCs/spleen,[1],equivalent
same,number of total anti-NP IgM antibody secreting cells (ASCs) per spleen,[1],equivalent
same,total IgG anti-NP ASCs/spleen,[1],no observed difference
same,levels of IgG anti-NP found in the periphery,[2],equivalent
same,levels of IgM anti-NP found in the periphery,[2],equivalent
